Test system: NYHA III heart failure patients, who had not had erections for several years
Experiment: Clinical data: levosimendan infusion in heart failure patients with erectile dysfunction
Type: in vivo, man
Description: Clinical Data Two NYHA III heart failure patients, who had not had erections for several years were treated with levosimendan. Patient I was exposed to 0.05 μg/kg/min continuous infusion of levosimendan for 7 days.

[1] = Patient I, 0.05 μg/kg/min continuous infusion for 7 days

SMILES: CC1CC(=O)NN=C1c1ccc(NN=C(C#N)C#N)cc1 (single isomer, unassigned; (-)) [levosimendan, (−)-[[4-(1,4,5,6-tetrahydro-4-methyl-6-oxo-3-pyridazinyl)phenyl]hydrazono]propanedinitrile]
- erections during the study [1]: erections in the mornings during the whole study
- time to reported erections after starting the infusion [1]: 1 days
- erections reported (Patient II, 0.1 μg/kg/min continuous infusion for 2 days): reported erections
